In US9000012B2 (priority 2009, dated 2015) one finds logP and Efficacy data, which are given here for twelve compounds.

The structures appear in SMILES notation. Like-named read-outs stand apart in the source and are kept apart here.

The nature of data set [1]: logP of the compounds of table 1. Format: physicochemical.
The next data set concerns Phytophthora infestans. Format: in vivo, Phytophthora infestans on tomato. Particulars: preventive spray on young tomato plants, 500 ppm of active ingredient, inoculated one day after treatment, evaluated 7 days after inoculation; 0% = untreated control, 100% = no disease.
The nature of data set [2]: logP of the compounds of table 1. Format: physicochemical. The source holds these as a separate data set.

In data set [1], `CCCCCOC(=O)Nc1cccc(CON=C(C(=O)N(C)C)c2ccccc2)n1` [Example 99] returned a logP of 3.96. In the data set on Phytophthora infestans, this compound yielded an Efficacy of 95%.
Consider `CN(C)C(=O)C(=NOCc1cccc(NC(=O)OC(C)(C)C)n1)c1ccccc1` [Example 98], for which the logP in data set [1] is recorded as 3.37. The compound also showed an Efficacy with Phytophthora infestans of 85%.
The matching figures for `CC(Oc1ccccc1)C(=O)Nc1cccc(CON=C(C(=O)N(C)C)c2ccccc2)n1` (centres unmarked) [Example 111]: 3.50 and 92%.
Take `COc1ccc(CC(=O)Nc2cccc(CON=C(C(=O)N(C)C)c3ccccc3)n2)cc1` [Example 112]: in data set [1], the logP came out at 3.00. In the data set with Phytophthora infestans, this compound displayed an Efficacy of 100%.
The compound `CN(C)C(=O)C(=NOCc1cccc(NC(=O)C(F)(F)Oc2ccccc2)n1)c1ccccc1` [Example 110] showed a logP in data set [1] of 3.73. This compound showed an Efficacy with Phytophthora infestans of 70%.
`CNC(=O)C(=NOCc1cccc(NC(=O)C2COc3ccccc3O2)n1)c1ccccc1` (centres unmarked) [Example 75] registered a logP in data set [1] of 3.06. The compound also had an Efficacy in the data set with Phytophthora infestans of 85%.
The matching figures for `CC(Oc1ccccc1)C(=O)Nc1nc(CON=C(C(=O)N(C)C)c2ccccc2)cs1` (centres unmarked) [Example 130]: 3.21 and 100%.
For the compound `CN(C)C(=O)C(=NOCc1csc(NC(=O)C2COc3ccccc3O2)n1)c1ccccc1` (centres unmarked) [Example 129], the logP in data set [1] is on record as 3.15. The same compound had an Efficacy in the data set with Phytophthora infestans of 92%.
In data set [1], `CN(C)C(=O)C(=NOCc1cccc(NC(=O)C2COc3ccccc3O2)n1)c1ccccc1` (centres unmarked) [Example 109] showed a logP of 3.42. In the data set with Phytophthora infestans, this compound came in with an Efficacy of 98%.
Taken in the same sequence, the figures for `C#CCC(C)OC(=O)Nc1cccc(CON=C(C(=O)N(C)C)c2ccccc2)n1` (centres unmarked) [Example 101] were 3.07 and 95%.
Compound `C#CCCOC(=O)Nc1cccc(CON=C(C(=O)N(C)C)c2ccccc2)n1` [Example 100] yielded a logP in data set [1] of 1.83. Moreover, in the data set with Phytophthora infestans, the Efficacy is given as 70%.
The compound `CCON(C)C(=O)C(=NOCc1cccc(NC(=O)c2ccc(Cl)cc2)n1)c1ccccc1` [compound 204] showed a logP in data set [2] of 4.01.
